Assay results published in patent US7101707B2, “Secondary sprouting for isolation and expansion of endothelial sprout cells and endothelial precursor cells from a mixed population and for screening substances” (Cedars-Sinai Medical Center, priority 2002, dated 2006).
Entries after “also recorded” stand apart in the source; their conditions may differ. Numbered stars: 1 amine (or outer) side, 2 acyl side, 3 side chain; on linkers, the order of the positions; unused ones are H or OH. Bridge positions count the residues as written; N and C are the ends. Square brackets hold non-standard residues; d marks the D form. Peptide text beside a SMILES is read from it. I, II: the chains in the order shown. Actinocin(9to1) = Cc1c2oc3c(C)ccc(C(=O)[*:1])c3nc-2c(C(=O)[*:2])c(N)c1=O; NMeV = CN[C@H](C(=O)O)C(C)C; Sar = CNCC(=O)O

Key:
REC [1] = test: Angiogenic assays taken together (proliferation, secondary sprouting, migration, tube formation); assay type: cell-based, bovine; details: all assays
Procedure: Treatment of REC cultures. Duplicate REC cultures on plastic (for migration) or MATRIGEL™ biological cell culture substrate with the same number of cells per dish are treated with previously established working concentrations of signaling inhibitors and/or select growth factor combinations. Treatments begin at the time of seeding the cells and medium is changed every other day. Single growth factors are used as negative controls since their modulation of TN-C effects was minimal. Working growth factor concentrations were as follows: VEGF, 1–50 ng/mL depending on the assay; PlGF, 100 ng/mL; FGF-2, 10–100 ng/mL; IGF-I, 25–100 ng/mL; PDGF-BB, 10–100 ng/mL. When used as combinations, each growth factor was supplied at 10 ng/mL for optimum synergy. The already tested inhibitors of signaling molecules (Sigma, Calbiochem, BIOMOL) were used at the following optimized doses: protein kinase A (inhibitor: H89 [25 μM]), PKC (inhibitor: calphostin C [2.5 μM]), PKC-β (inhibitor: LY379196 [50 nM]), Ca^2+/calmodulin kinase II (inhibitor: KN-93 [0.5 μM]), CK1 (inhibitor: CKI-7 [50 μM]), MEK-ERK (inhibitor: PD98059 [10 μM]), p38 MAP kinase (inhibitor: SB202190 [10 μM]), PI3 kinase (inhibitor: wortmannin [100 nM]), CK2 (inhibitors: emodin [20–25 μM] and DRB [20–25 μM]), CK2 and other kinases (inhibitor: quercetin [50 μM]); and a negative control for kinase inhibition (SB202474 [10 μM]). […]

bovine REC [2] = test: REC survival assay (MTS, low serum); assay type: cell-based; details: for effect of growth factors on REC survival: growth factors 10 ng/mL each
Procedure: (§1) REC proliferation and survival assays. 96-well plates were coated with various amounts of TN-C or vehicle. 5×10^3 cells were added to each triplicate well in low-serum REC medium with various amounts of growth factors (0.5% FCS incomplete BREC medium containing 10 ng/ml of human IGF-I, FGF-2, VEGF, PlGF and PDGF-BB [R&D Systems Inc., Minneapolis, Minn.]). Cell numbers were determined on days 4–7 using the MTS cell proliferation assay (Promega Corp.) according to manufacturer's instructions. Survival was measured in the same way using high glucose (30 mM) or chemical hypoxia (2 mM sodium azide) or serum-free medium to induce cell death. Cell numbers were determined on days 4–7 using MTS assay (Promega).

bovine REC [3] = test: REC proliferation assay (MTS); assay type: cell-based; details: for effect of kinase inhibitors on proliferation: basal and growth factor-stimulated (CK2 blockers), H-7 preliminary, not shown
Procedure: as §1

bovine REC [4] = test: Secondary sprouting assay on reconstituted basement membrane matrix (MTS); assay type: cell-based; details: for effect of kinase inhibitors on secondary sprouting: basal and growth factor-stimulated (CK2 blockers), H-7 preliminary, not shown
Procedure: (§2) In vitro MATRIGEL™ biological cell culture substrate assay of capillary-like tube formation and secondary sprouting. […] Briefly, 50 μL of reconstituted basement membrane matrix from mouse EHS tumor (BD or GFR MATRIGEL™ biological cell culture substrate; Becton Dickinson Labware, Bedford, Mass.) were dispensed with frozen pipettes into each well of a previously frozen, sterile 96-well plate sitting on wet ice and allowed to solidify for 1 hr at room temperature or 37° C. Approximately 5×10^4 or 7.5×10^4 REC in a 100 μL volume were seeded into each triplicate well. Human recombinant or purified growth factors were added to a final concentration of 10 ng/mL (or as noted) in 0.5% FCS incomplete BREC medium. Capillary-like tube structures formed by REC on reconstituted basement membrane matrix were photographed at various intervals ranging from 12–72 hr; pictures were scanned, digitized and analyzed using image-processing software.
For the secondary sprouting assay, cells on reconstituted basement membrane matrix were seeded as above but incubated in 0.5% FCS incomplete BREC medium without any growth factors for 3 days, allowing for tube formation and collapse. On day 3, human recombinant or purified growth factors were added to a final concentration of 10 ng/mL (or as noted) in low-serum incomplete BREC medium and incubated for another 5–6 days. Digital photographs were obtained with a Kodak MDS 100 camera attached to a Leitz DM IL inverted microscope. Digitized images obtained with a Kodak MDS 100 video camera were stored on compact discs and quantified with NIH Image 1.62 software. The number of living cells in the sprouting colonies were determined using the MTS cell proliferation assay.
A good correlation was observed between the spherical volume and the number of live cells in secondary sprouting colonies (not shown). Since the latter is an easy parameter to test by using the MTS assay, it was adopted as a faster method for studying the effect of various agents on secondary sprouting.

REC [5] = test: Capillary-like tube formation on MATRIGEL; assay type: cell-based, bovine; details: for effect of kinase inhibitors on tube formation: basal and growth factor-stimulated (CK2 blockers), H-7 preliminary, not shown
Procedure: as §2

[6] = tested on: retinal neovascularization; test: Oxygen-induced retinopathy in newborn mice; assay type: in vivo, mouse
bovine REC [7] = test: Migration (wound healing) assay; assay type: cell-based; details: for effect of kinase inhibitors on migration: basal and growth factor-stimulated (CK2 blockers), H-7 preliminary, not shown; for effect of growth factors on REC migration: growth factors 10 ng/mL each
Procedure: Migration assay. REC migration rates were examined in a wound healing assay, where cells migrate over time into the scrape wound in a monolayer. Briefly, cells were seeded in 24-well plates and allowed to reach confluence in growth medium. Prior to growth factor treatment, cells were serum-starved overnight in incomplete BREC medium with 0.5% FCS. All monolayers within an experiment were wounded with a single sterile wood stick of constant diameter, to ensure uniformity in the wound areas among different treatments. Wounded monolayers were then rinsed with low-serum medium to remove detached cells and treated with various combinations of human growth factors at 10 ng/mL each. On day 7, cells were rinsed 3× with PBS and fixed with methanol for 15 min, rehydrated with dH2O and stained with Meyer's hematoxylin for 5 min, followed by destaining with dH2O. All wells were photographed with a 4× or 10× objective using a Kodak MDS 100 digital camera attached to a Leitz DM IL inverted microscope. The original wound area was measured at 0 hr and used as a baseline for comparison to the treated wells at the conclusion of the experiment. The number of cells migrated into the wound was determined. Migrating cell counting was automated using the AAB (Advanced American Biotechnology, Fullerton, Calif.) software. Data were calculated and statistically analyzed (Spirin K S et al., Basement membrane and growth factor gene expression in normal and diabetic human retinas, Curr. Eye Res. 18:490–499 [1999]) relative to control cultures that received the same concentrations of bovine serum albumin instead of growth factors and/or inhibitor, compared to vehicle instead of inhibitor after wounding. Inhibitors were added 30 min before growth factors.

human REC = test: Gene array analysis of growth factor action on normal and DR REC; assay type: cell-based; details: 10 ng/mL, 7 days, 0.5% serum
Procedure: Normal REC and DR REC gene expression patterns were compared by gene array analysis. Normal, diabetic and DR autopsy human eyes are obtained from National Disease Research Interchange (NDRI), within 24 hours after death. These eyes are used to isolate REC for culture as described hereinabove. Cultures can be used up to the fourth passage, and viable cultures can be cryogenically stored. Cultures of normal, diabetic and DR REC are established from autopsy human eyes and routinely checked for purity using von Willebrand factor immunostaining as described hereinabove. Cells are cultured in 50% F-12, 50% low-glucose DMEM with antibiotics/antimycotics (GIBCO/BRL), insulin-transferrin-selenite, ECGS (Sigma Chemical Co.), and 20% FCS. Statistical analysis of results is done with GraphPad Prism software (GraphPad Software).
In experiments, normal, diabetic, and DR REC were grown for seven days with or without 10 ng/ml VEGF, or 10 ng/mL IGF-I, or 10 ng/mL each VEGF and IGF-I, in medium with 0.5% serum. Long-term rather than short-term treatment was chosen because diabetes develops over a considerable time period. RNA isolated from REC was reverse-transcribed using Smart™ cDNA synthesis method (Clontech), to produce full-length cDNA. Two normal cases or two DR cases were pooled together. This cDNA was PCR-amplified with a short number of cycles and used as a probe for Clontech Atlas Human 1.2 1,200-gene arrays, according to the manufacturer's instructions. This technique had previously been refined and verified by Northern analysis and fully correlated gene array data with protein expression. (Spirin K S et al., Analysis of gene expression in human bullous keratopathy corneas containing limiting amounts of RNA, Invest. Ophthalmol. Vis. Sci. 40:3108–3115 [1999]). Samples were normalized to several housekeeping genes and the analysis was done with available AtlasImage 2.0 software (Clontech). Signal ratio >2 between samples was considered significant as per manufacturer's recommendation.

## Cc1c2oc3c(C)ccc(C(=O)N[C@@H]4C(=O)N[C@H](C(C)C)C(=O)N5CCC[C@H]5C(=O)N(C)CC(=O)N(C)[C@@H](C(C)C)C(=O)O[C@@H]4C)c3nc-2c(C(=O)N[C@@H]2C(=O)N[C@H](C(C)C)C(=O)N3CCC[C@H]3C(=O)N(C)CC(=O)N(C)[C@@H](C(C)C)C(=O)O[C@@H]2C)c(N)c1=O [Actinomycin D] (I: T[dV]P[Sar][NMeV] / II: T[dV]P[Sar][NMeV]; ester I:1-I:C, II:1-II:C; linker I:N-II:N via Actinocin(9to1))
REC [1]
  effect of inhibitors in angiogenic assays: only minor changes

## OC[C@H]1O[C@@H](n2cnc3cc(Cl)c(Cl)cc32)[C@H](O)[C@@H]1O [DRB, 5,6-dichloro-1-β-D-ribofuranosylbenzimidazole]
Bovine REC [2]; bovine REC, 0.5% serum, various concentrations, day 6, MTS
  number of live cells, survival: significantly lowers cell number
Bovine REC [3]
  effect of kinase inhibitors on proliferation: potently inhibited
Bovine REC [3]; bovine REC, 10% serum, various concentrations, day 6, MTS
  number of live cells, proliferation: significantly lowers cell number
Bovine REC [4]
  effect of kinase inhibitors on secondary sprouting: potently inhibited
Bovine REC [4]; bovine REC on MATRIGEL, 0.5% serum, day 9, MTS
  concentration from which live cell number in secondary sprouting is significantly decreased: ≥ 25 µM
REC [5]
  effect of kinase inhibitors on tube formation: potently inhibited
[6]; two intraperitoneal injections daily, day 11 to 17 after birth, emodin 20–30 μg/g, vs untreated or vehicle
  diminution of retinal neovascularization (preretinal nuclei count): about 60%
Bovine REC [7]
  effect of kinase inhibitors on migration: potently inhibited
Bovine REC [7]; four GFs 10 ng/ml each, 7 days, 0.5% serum, emodin 10 μM, DRB 15 μM
  effect on growth factor-mediated cell migration: significant inhibitory effect

## CC1CNCCN1S(=O)(=O)c1cccc2cnccc12 (centres unmarked) [H-7]
Bovine REC [3]
  effect of kinase inhibitors on proliferation: inhibited
Bovine REC [4]
  effect of kinase inhibitors on secondary sprouting: inhibited
REC [5]
  effect of kinase inhibitors on tube formation: stabilized REC tubes
Bovine REC [7]
  effect of kinase inhibitors on migration: inhibited

## O=c1c(O)c(-c2ccc(O)c(O)c2)oc2cc(O)cc(O)c12 [quercetin]
Bovine REC [3]
  effect of kinase inhibitors on proliferation: potently inhibited
Bovine REC [4]
  effect of kinase inhibitors on secondary sprouting: potently inhibited
REC [5]
  effect of kinase inhibitors on tube formation: potently inhibited
[6]; intramuscular injections, data not shown
  effect on retinal neovascularization: substantial effect
Bovine REC [7]
  effect of kinase inhibitors on migration: potently inhibited

## FGF-2: fibroblast growth factor (FGF)-2, angiogenic growth factor
Bovine REC [4]; 10 ng/mL
  morphology of sprouting colonies after growth factor treatment: longer and sparser sprouts
Bovine REC [4]; 10 ng/mL, 0.5% FCS medium
  effect of growth factors on secondary sprouting (live cell number): potently stimulated; also recorded: pro-angiogenic; also recorded: dramatic increase; also recorded: greatly enhanced
Bovine REC [4]; growth factors, live cells by MTS
  stimulation of secondary sprouting (fold, on average): four-fold
REC [5]; growth factors 10 ng/mL each
  effect of growth factors on tube formation: little or no effect
Bovine REC [7]
  effect of growth factors on REC migration: little or no effect

## IGF-I: insulin-like growth factor (IGF)-I
Bovine REC [2]
  effect of growth factors on REC survival: the opposite
Human REC
  expression of pro-apoptotic genes: decrease
Bovine REC [7]
  effect of growth factors on REC migration: the opposite

## VEGF
Bovine REC [2]
  effect of growth factors on REC survival: little effect
Human REC
  expression of pro-apoptotic genes: did not display an increase
  expression of proliferation-related genes: upregulated
  expression of various phosphatases: downregulated
Bovine REC [7]
  effect of growth factors on REC migration: significantly enhanced
